Five molecules from US20250129084A1, “Compounds” (GlaxoSmithKline Intellectual Property Development Limited, priority 2022, published 2025) can be followed below.

≈ marks a conversion by molar mass, not a printed value. Read-outs that look alike come from different tables or passages of the source.

Assay [1] concerns Mycobacterium tuberculosis H37Rv in human macrophages THP-1. In words: Mycobacterium tuberculosis in vitro H37Rv in human macrophages THP-1 inhibition assay (intracellular assay). The format is cell-based. The following applies: read-out: Assay 3 MIC (μM) intracellular. The text has this: Assay 3 Mycobacterium tuberculosis In Vitro H37Rv in Human Macrophages THP-1 Inhibition Assay
This ex-vivo assay may represent physiological conditions that mimic disease and take into consideration the favourable contribution of host cells.

In assay [2] the test system is Mycobacterium tuberculosis H37Rv. The experiment in a line: Acute Mycobacterium tuberculosis in vivo assay.
For assay [3] the test system is unchanged. The experiment in a line: Mycobacterium tuberculosis in vitro H37Rv extracellular inhibition assay (OD readout). The class given is cell-based. The following applies: 192 h, read-out: Assay 2 MIC (μM) extracellular.
The target in assay [4] is T1, Mycobacterium tuberculosis lysine tRNA synthetase (MtKRS) (Mycobacterium tuberculosis, UniProt P9WFU9).
T1 construct: made in house; host or cells: E. coli BL21 (DE3)
T1 sequence (P9WFU9 whole entry): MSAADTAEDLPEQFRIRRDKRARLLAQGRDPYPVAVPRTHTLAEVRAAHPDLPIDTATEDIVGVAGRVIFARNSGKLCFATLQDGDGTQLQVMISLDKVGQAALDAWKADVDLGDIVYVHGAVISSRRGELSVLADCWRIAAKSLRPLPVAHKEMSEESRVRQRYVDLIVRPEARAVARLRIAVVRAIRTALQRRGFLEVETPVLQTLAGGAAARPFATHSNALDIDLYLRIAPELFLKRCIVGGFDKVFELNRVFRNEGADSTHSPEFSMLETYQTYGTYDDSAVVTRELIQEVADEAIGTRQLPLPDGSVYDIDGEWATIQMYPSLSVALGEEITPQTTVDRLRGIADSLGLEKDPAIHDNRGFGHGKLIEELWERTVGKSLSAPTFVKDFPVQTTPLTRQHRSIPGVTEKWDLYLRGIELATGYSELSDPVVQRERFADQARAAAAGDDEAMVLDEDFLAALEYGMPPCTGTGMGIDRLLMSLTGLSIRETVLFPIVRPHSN
In words: biochemical. The settings on record: 40 nM MtKRS, 30 μM ATP, 12 μM L-lysine, 20 hours incubation; read-out: Assay 1 Mtb KRS.

The mark [5] stands for this setting: H37Rv in THP-1 human macrophages.

As to `CCOc1nc(N)nc2c1C(=O)N([C@@H]1CCCCC[C@@H]1O)C2` [Example 46, 2-Amino-4-ethoxy-6-((1R,2S)-2-hydroxycycloheptyl)-6,7-dihydro-5H-pyrrolo[3,4-d]pyrimidin-5-one], the MIC in assay [1] (H37RV) was 1.1 µM (≈ 0.337 µg/mL); in assay [3] (H37RV), 0.5 µM (≈ 0.153 µg/mL). The “Log PCR reduction in acute efficacy study @ 50 mg/kg” value in assay [2] (C57BL/6 mice, 50 mg/kg oral once a day, day 1 to day 8) stood at 3. The “Assay 4 ED99” value in assay [2] (female C57BL/6 mice, intratracheal infection, oral once a day day 1 to day 8, lungs harvested day 9) came out at 7 mg/kg.
On to `CNc1nc(N)nc2c1C(=O)N([C@H]1[C@@H](O)CCCCC1(F)F)C2` [Example 51, 2-Amino-6-((1S,7S)-2,2-difluoro-7-hydroxycycloheptyl)-4-(methylamino)-6,7-dihydro-5H-pyrrolo[3,4-d]pyrimidin-5-one], for which the IC50 in assay [4] was found to be 200 nM. The MIC in assay [1] (H37RV) worked out at 0.3 µM (≈ 0.0982 µg/mL); in assay [3] (H37RV), 1 µM (≈ 0.327 µg/mL).
On to `Nc1nc2c(c(-n3cccn3)n1)C(=O)N([C@H]1[C@@H](O)CCCCC1(F)F)C2` [Example 52, 2-Amino-6-((1S,7S)-2,2-difluoro-7-hydroxycycloheptyl)-4-(1H-pyrazol-1-yl)-6,7-dihydro-5H-pyrrolo[3,4-d]pyrimidin-5-one], for which, in assay [4], the IC50 amounted to 80 nM. Moreover, the MIC amounted to 0.06 µM (≈ 0.0219 µg/mL) in assay [1] (setting [5]) and 0.1 µM (≈ 0.0364 µg/mL) in assay [3] (H37Rv, 7H9 medium, 8 days, Abs 590 nm). Also, the “CFU reduction @12 mg/kg (acute efficacy study)” value in assay [2] (C57BL/6 mice, 12 mg/kg oral once a day, day 1 to day 8) is listed as 0.4 (CFU reduction.
Consider `CCOc1cnn(-c2nc(N)nc3c2C(=O)N([C@@H]2CCCC[C@@H]2O)C3)c1` [Example 53, 2-amino-4-(4-ethoxy-1H-pyrazol-1-yl)-6-((1R,2S)-2-hydroxycyclohexyl)-6,7-dihydro-5H-pyrrolo[3,4-d]pyrimidin-5-one], for which, in assay [4], the IC50 stood at 300 nM. Also, in assay [1] (setting [5]), the MIC amounted to 0.3 µM (≈ 0.108 µg/mL).
Turning to `CCOc1cnn(-c2nc(N)nc3c2C(=O)N([C@H]2CCCCC2(F)F)C3)c1` [Example 54, (S)-2-amino-6-(2,2-difluorocyclohexyl)-4-(4-ethoxy-1H-pyrazol-1-yl)-6,7-dihydro-5H-pyrrolo[3,4-d]pyrimidin-5-one], in assay [4], the IC50 was found to be 200 nM.
